These results are taken from article PMC10824666 (Nature Cancer, 2023).

Like-named read-outs stand apart in the source and are kept apart here.

Test in all cases: biochemical
Common to all, as to set-up: Eurofins DiscoverX kinase panel, competitive binding assay at 1 uM, percent of DMSO control
What all share (details): competitive binding, percent of DMSO control

One test addresses OXSR1 (Homo sapiens, UniProt O95747). As to the method:
(§1) Extended Data Fig. 3 In vitro characterization of potent and selective KIF18A inhibitors. a, KIF18A compounds (1 µM) were assessed across a panel of kinases (n = 96) by a competitive binding assay. Graph presented as percentage of control (POC); dashed line indicates POC value of 30 (n = 1 experiment). b, Tubulin polymerization analysis. Profile of KIF18A compounds (10 µM) relative to DMSO, paclitaxel (5 µM, tubulin stabilizer), or nocodazole (5 µM, tubulin destabilizer). Graphs presented as tubulin fluorescence signal at 440 nm expressed as arbitrary units (a.u.) versus time (min) with area-under-the-curve (AUC) values (n = 1 or 3 independent experiments). c, Mitotic spindle image analysis. […] Representative images were captured with x40 objective (scale bar = 10 µm) (n = 1 experiment). d-f, KIF18A compound effects on HeLa cells. d, Cells were treated for 96 h with DMSO or KIF18A compounds at the indicated concentrations. KIF18A compound concentration-response profiles presented as count relative to the percentage of DMSO control (POC) with count EC50 values (n = 2 independent experiments in duplicate). e, KIF18A protein localization in cells after treatment for 6 hours with DMSO or AM-1882 (0.05 µM). Cells stained to detect DNA, KIF18A, and centrin-3. Representative images of mitotic cells (n = 3 per group) were captured with x60 objective (scale bar = 5 µm) and graphs of line scan measurements were obtained for DNA, KIF18A, and centrin-3 channels expressed as fluorescence intensity (a.u.) versus distance (µm) (n = 1 experiment). f, Mitotic cell fate imaging analysis. HeLa Kyoto cells co-expressing α-tubulin-EGFP and H2B-mCherry proteins released from a G1S block in media containing DMSO or AM-1882 (0.2 µM). Analysis was performed on cells entering the first mitosis (n = 40 cells per group). Graph presented as time in mitosis (h) versus mitotic cell fate, either complete cell division (CCD) or death in mitosis (DiM). Classified cells exiting mitosis by the number of daughter cells and cell death in […] We screened a small-molecule library of diverse compounds for selective inhibitors of KIF18A MT-ATPase motor activity. Two compound hits were discovered that phenocopied the effects of KIF18A KD in cells; these hits are structurally distinct from the KIF18A inhibitor BTB-1 (refs. [27],[28]). […] However, the potency of the KIF18A inhibitors was unaffected by varying ATP and MT concentrations (Extended Data Fig. 2d). This supports our proposed model in which KIF18A inhibitors occupy an allosteric pocket formed by motor helices α4 and α6 close to the motor MT-binding surface. To screen for potential off-target interactions with essential mitotic kinases, three of the KIF18A compounds were profiled against a large panel of kinases. […] We next investigated whether our KIF18A inhibitors affected tubulin polymerization in vitro in the absence of the KIF18A motor. All four KIF18A compounds had tubulin-polymerization profiles similar to that of the DMSO control and distinct from those of the paclitaxel (MT stabilizer) and nocodazole (MT destabilizer) co

The next test addresses T1, ROCK 2 (Homo sapiens, UniProt O75116).
T1 construct: gene ROCK2
How it is done: as §1

The next test deals with T2, MLTK (Homo sapiens, UniProt Q9NYL2).
T2 construct: gene MAP3K20
How it is done:
as §1

Another test addresses T3, TAK1 (Homo sapiens, UniProt O43318).
T3 construct: gene MAP3K7
T3 sequence (O43318 1-606): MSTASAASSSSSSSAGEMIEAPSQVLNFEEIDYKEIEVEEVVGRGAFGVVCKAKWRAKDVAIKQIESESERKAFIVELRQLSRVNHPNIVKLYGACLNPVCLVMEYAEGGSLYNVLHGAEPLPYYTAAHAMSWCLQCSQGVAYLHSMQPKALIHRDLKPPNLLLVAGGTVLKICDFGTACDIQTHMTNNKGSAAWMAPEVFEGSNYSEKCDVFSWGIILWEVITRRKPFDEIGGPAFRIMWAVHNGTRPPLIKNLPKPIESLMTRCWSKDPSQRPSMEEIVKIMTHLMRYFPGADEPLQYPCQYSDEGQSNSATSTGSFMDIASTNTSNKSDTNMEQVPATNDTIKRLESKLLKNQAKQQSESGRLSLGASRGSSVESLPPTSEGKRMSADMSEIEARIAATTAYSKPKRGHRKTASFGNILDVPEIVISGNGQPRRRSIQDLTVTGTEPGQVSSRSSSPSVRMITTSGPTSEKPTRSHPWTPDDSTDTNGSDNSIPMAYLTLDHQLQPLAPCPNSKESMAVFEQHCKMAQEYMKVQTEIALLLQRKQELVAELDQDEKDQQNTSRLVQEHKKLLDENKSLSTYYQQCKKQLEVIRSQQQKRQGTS
As to the method:
as §1

For a further test, the target named is MAP4K4 (Homo sapiens, UniProt O95819). As to the method: as §1
A further test addresses T4, Brk (Homo sapiens, UniProt Q13882).
T4 construct: gene PTK6
As to the method: as §1

The mark [1] stands for this setting: read-out: Kinome Profiling performed by Eurofins DiscoverX / AM-0277, 1.0 µM / POC.
[2] abbreviates: read-out: Kinome Profiling performed by Eurofins DiscoverX / AM-1882, 1.0 µM / POC.
[3] abbreviates: read-out: Kinome Profiling performed by Eurofins DiscoverX / AM-5308, 1.0 µM / POC.

Sequence of MAP4K4 (O95819 whole entry): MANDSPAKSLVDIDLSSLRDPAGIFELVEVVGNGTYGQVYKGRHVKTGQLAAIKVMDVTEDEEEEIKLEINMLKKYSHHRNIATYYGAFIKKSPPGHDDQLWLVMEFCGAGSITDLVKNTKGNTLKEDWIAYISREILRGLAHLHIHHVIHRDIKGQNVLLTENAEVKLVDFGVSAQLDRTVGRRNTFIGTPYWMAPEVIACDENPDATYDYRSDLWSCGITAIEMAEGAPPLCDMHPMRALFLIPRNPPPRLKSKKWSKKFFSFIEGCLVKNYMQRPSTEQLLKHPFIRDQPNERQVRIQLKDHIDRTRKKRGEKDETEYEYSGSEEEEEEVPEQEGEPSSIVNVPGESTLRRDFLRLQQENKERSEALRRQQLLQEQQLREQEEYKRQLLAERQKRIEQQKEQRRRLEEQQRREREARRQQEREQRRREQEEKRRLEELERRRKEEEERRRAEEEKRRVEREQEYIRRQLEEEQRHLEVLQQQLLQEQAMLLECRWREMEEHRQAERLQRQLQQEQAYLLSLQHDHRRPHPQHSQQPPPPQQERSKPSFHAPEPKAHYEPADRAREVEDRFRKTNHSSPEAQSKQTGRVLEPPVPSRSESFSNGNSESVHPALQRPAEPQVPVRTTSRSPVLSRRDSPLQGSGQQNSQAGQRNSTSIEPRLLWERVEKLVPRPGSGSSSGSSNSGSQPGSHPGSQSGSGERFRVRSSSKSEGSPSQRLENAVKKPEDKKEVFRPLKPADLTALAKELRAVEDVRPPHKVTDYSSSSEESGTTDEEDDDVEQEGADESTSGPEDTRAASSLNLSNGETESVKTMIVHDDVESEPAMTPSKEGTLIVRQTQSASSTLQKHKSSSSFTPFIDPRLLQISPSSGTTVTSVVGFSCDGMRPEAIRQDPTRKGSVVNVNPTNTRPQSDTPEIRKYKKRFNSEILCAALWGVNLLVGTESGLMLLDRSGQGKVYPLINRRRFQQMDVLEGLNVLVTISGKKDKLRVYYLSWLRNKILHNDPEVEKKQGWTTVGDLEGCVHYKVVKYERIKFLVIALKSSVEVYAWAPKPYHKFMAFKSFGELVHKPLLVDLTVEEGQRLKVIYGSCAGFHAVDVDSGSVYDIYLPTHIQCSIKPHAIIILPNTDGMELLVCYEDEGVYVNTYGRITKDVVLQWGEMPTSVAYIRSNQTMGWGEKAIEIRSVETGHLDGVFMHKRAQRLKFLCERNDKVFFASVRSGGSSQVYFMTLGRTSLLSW
Sequence of OXSR1 (O95747 whole entry): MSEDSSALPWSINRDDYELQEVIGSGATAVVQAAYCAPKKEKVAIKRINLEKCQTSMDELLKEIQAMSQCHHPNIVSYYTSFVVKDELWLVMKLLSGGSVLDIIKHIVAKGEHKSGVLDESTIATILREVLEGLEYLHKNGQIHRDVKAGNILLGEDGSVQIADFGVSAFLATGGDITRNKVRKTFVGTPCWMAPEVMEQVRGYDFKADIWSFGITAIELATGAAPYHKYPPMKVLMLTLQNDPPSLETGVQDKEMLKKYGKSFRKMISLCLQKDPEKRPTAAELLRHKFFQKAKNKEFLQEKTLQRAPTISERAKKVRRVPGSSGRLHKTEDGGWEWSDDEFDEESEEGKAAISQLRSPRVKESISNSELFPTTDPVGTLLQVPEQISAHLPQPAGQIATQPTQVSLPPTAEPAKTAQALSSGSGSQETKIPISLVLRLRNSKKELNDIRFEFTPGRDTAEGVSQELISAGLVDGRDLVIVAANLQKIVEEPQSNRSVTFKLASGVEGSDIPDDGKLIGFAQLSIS
T4 sequence (Q13882 whole entry): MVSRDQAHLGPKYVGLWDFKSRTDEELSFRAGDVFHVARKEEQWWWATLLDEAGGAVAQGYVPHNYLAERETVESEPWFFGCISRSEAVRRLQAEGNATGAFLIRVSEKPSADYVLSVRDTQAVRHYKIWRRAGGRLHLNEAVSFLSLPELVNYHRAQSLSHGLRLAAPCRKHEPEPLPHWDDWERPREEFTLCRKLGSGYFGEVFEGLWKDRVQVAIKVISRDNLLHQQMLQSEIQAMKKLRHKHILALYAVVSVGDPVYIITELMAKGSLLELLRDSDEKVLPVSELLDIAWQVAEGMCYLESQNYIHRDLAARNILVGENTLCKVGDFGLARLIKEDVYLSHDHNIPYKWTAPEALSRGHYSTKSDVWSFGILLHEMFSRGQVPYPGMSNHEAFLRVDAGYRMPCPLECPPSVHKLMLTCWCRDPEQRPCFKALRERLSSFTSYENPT
T1 sequence (O75116 whole entry): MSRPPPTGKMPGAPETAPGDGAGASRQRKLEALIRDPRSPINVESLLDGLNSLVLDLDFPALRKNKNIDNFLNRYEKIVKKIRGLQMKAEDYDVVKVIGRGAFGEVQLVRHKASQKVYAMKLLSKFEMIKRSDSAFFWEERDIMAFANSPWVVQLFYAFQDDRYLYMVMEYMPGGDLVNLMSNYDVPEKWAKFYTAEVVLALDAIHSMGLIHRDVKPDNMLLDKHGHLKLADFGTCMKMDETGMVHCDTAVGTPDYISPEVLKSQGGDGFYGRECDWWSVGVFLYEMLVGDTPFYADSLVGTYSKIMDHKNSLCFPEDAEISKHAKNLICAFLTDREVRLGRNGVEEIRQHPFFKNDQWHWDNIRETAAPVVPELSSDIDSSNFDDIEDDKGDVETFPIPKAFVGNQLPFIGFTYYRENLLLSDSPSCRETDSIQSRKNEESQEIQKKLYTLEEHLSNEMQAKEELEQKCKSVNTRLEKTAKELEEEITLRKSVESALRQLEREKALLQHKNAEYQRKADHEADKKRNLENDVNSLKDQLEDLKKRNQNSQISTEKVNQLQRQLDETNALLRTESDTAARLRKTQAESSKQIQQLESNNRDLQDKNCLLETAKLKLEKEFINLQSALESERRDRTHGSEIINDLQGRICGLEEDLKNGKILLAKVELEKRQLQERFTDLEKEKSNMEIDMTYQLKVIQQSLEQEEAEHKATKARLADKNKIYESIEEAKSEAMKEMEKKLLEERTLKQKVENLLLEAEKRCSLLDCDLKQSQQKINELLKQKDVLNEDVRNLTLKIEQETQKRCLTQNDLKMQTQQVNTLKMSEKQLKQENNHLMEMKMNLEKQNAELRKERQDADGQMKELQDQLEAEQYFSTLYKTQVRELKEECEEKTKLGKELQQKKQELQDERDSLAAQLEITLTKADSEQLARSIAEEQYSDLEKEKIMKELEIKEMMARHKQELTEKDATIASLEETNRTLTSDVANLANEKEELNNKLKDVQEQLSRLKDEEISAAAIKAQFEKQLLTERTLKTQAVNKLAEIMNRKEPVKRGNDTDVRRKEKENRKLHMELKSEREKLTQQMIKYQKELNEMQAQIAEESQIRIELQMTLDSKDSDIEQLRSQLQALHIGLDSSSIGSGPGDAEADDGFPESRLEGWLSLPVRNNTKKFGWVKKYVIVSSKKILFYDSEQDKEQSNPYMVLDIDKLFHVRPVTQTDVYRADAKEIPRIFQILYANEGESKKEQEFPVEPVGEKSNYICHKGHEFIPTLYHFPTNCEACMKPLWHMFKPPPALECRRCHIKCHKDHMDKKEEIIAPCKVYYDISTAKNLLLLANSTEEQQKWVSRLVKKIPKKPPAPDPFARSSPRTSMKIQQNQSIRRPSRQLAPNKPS
T2 sequence (Q9NYL2 whole entry): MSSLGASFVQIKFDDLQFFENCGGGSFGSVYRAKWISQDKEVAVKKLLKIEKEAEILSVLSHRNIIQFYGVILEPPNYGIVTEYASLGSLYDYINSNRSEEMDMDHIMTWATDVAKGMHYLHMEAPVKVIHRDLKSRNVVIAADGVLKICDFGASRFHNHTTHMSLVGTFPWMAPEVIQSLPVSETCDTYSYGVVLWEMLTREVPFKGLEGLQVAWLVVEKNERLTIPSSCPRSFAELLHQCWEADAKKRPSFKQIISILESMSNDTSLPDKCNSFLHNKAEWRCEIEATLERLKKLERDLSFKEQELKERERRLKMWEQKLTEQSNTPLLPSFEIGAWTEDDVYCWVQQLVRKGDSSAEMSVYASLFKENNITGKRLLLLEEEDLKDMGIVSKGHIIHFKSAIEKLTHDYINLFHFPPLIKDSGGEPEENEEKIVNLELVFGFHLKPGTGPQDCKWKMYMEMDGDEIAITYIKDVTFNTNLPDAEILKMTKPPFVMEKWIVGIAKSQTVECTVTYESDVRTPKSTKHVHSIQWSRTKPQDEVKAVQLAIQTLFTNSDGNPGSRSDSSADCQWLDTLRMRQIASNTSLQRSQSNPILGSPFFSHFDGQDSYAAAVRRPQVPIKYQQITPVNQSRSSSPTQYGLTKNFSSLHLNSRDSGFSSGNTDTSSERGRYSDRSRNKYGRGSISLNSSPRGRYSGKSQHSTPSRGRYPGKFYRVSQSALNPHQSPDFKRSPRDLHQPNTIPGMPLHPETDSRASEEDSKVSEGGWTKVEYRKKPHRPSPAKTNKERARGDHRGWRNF

Take `CC(C)(CO)Nc1ccc(C(=O)Nc2cccc(S(=O)(=O)C3CCCC3)c2)c(N2CCC3(CC2)CC3)n1` [AM-0277]: the remaining activity at 1 µM at OXSR1 (setting [1]) worked out at 100%; at ROCK 2 (setting [1]), 100%; on MLTK (setting [1]), 90%; on TAK1 (setting [1]), 100%; on MAP4K4 (setting [1]), 100%; at Brk (setting [1]) it was 95%.
Take `CC(C)(C)NS(=O)(=O)c1cccc(NC(=O)c2ccc(S(=O)(=O)NC(C)(C)C)cc2N2CCC3(CC2)CC3)c1` [AM-1882]: the remaining activity at 1 µM stood at 92.5% on OXSR1 (setting [2]); 77% at ROCK 2 (setting [2]); 84.5% on MLTK (setting [2]); 100% on TAK1 (setting [2]); 95% at MAP4K4 (setting [2]); 94% at Brk (setting [2]).
As for `C[C@@H]1CN(c2cccc(NC(=O)c3ccc(NS(=O)(=O)CCO)cc3N3CCC4(CC3)CC4)n2)CCO1` [AM-5308], the remaining activity at 1 µM turned out to be 82.5% on OXSR1 (setting [3]); 97.5% on ROCK 2 (setting [3]); 100% on MLTK (setting [3]); 88.5% on TAK1 (setting [3]); 75% on MAP4K4 (setting [3]); 93.5% on Brk (setting [3]).
